Data from ChEMBL document CHEMBL1134526, “Enantioselective syntheses of potent retinoid X receptor ligands: differential biological activities of individual antipodes” (J Med Chem, 2001).

Tests used:
Format in all cases: functional
[1] = system: Mus musculus; assay: Hypoglycemic activity in mice at 8 mg/kg dose at day=0
[2] = system: Mus musculus; assay: Hypoglycemic activity in mice at 8 mg/kg dose at day=7
[3] = system: Mus musculus; assay: Hypoglycemic activity in mice at 2 mg/kg dose at day=0
[4] = system: Mus musculus; assay: Hypoglycemic activity in mice at 2 mg/kg dose at day=7
[5] = system: Mus musculus; assay: Hypoglycemic activity in mice at 0.4 mg/kg dose at day=0
[6] = system: Mus musculus; assay: Hypoglycemic activity in mice at 0.4 mg/kg dose at day=7

Structure (SMILES) | Glucose level [1] [mg/dL] | Glucose level [2] [mg/dL] | Glucose level [3] [mg/dL] | Glucose level [4] [mg/dL] | Glucose level [5] [mg/dL] | Glucose level [6] [mg/dL]
CC(/C=C/[C@H]1C[C@@]1(C)c1ccc2c(c1)C(C)(C)CCC2(C)C)=C\C(=O)O | 404 | 441 | 400 | 391 |  | 
CC(/C=C/[C@@H]1C[C@]1(C)c1ccc2c(c1)C(C)(C)CCC2(C)C)=C\C(=O)O [IRX-4204] |  |  | 404 | 221 | 406 | 291
